According to ChEMBL document CHEMBL1150004, “A general approach toward the design of mechanism-based inactivators of serine proteinases: inactivation of human leukocyte elastase by a phthalimide derivative” (Bioorg Med Chem Lett, 1993):

Target: T1, Neutrophil elastase (Homo sapiens) (UniProt P08246)
T1 sequence (whole entry): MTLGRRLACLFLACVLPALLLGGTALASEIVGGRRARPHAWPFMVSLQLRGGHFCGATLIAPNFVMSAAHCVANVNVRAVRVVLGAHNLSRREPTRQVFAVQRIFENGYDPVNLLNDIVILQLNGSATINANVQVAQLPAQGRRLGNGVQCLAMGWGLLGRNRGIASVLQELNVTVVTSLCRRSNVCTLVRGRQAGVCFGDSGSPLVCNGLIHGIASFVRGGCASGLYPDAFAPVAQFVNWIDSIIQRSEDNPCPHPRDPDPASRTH
Assay: Bimolecular rate constant of the interaction of compound with Human Leukocyte Elastase was evaluated

K obs / 1: 40 M⁻¹ s⁻¹
SMILES: CCOC(=O)C(F)N1C(=O)c2ccccc2C1=O (stereo unspecified)
